Experimental data as given in patent US11890324B2, “Compounds for use in inducing myocardial perfusion recovery” (Epoqe Pharma ApS, priority 2018, dated 2024).
Where “and” joins values, the source holds several entries; their conditions need not be identical. Equal entries are not always repeated. Entries after “also recorded” stand apart in the source; their conditions may differ.

Experiments:
[1] = system: hypertension in experimental animals; conditions: cited from earlier work
[2] = system: rats with acute myocardial infarction (permanent LAD occlusion); experiment: Rat model of acute myocardial infarction (permanent LAD occlusion), myocardial perfusion imaging by SPECT/CT
Procedure: Experimental myocardial infarction is induced by LAD ligation in rats. Size of the acute myocardial perfusion defect is determined by myocardial perfusion imaging using SPECT/CT. […] All surviving rats underwent follow-up myocardial perfusion imaging using SPECT/CT 21 days after the infarct to determine the final infarct size.
AMI surgery was conducted using the procedure for permanent LAD occlusion.
The rats were anaesthetized with 4% sevoflurane. Rats were intubated and ventilated (UNO micor-ventilator-O3, Netherlands) and maintained anaesthetized with sevuflorane 2.5% to 4%. Rats were placed on a heated surface during surgery. In the rat's tail vein a 24G intravenous catheter was placed (Vasofix® Safety, Braun, Denmark). Before incision the rats were pain treated subcutaneously with Buprenorphine 0.05 mg/kg. After surgery the rats were paintreated four times the first 24 hours and three times the next 24-72 hours.
After insuring sterile surgical conditions, an incision was made in the skin and a thoracotomy was performed. This was placed at either the third or fourth intercostal space depending on size. The pericardium was identified and opened. After inspection of the heart, the LAD was identified and ligated caudal of its origin with a 5-0 polypropylene suture. The myocardium was visually observed for ischemia. If there was no discoloration of the myocardium, another suture was made until ischemia was confirmed by discoloration of the myocardium. One minute after ligation, the rats were injected intravenously with 99-technetium sestamibi to determine the acute perfusion defect. After injection of sestamibi, suture type vicryl 4-0 was used to close the thoracotomy, muscle layer and skin.
Rats underwent single photon emission computer tomography (SPECT) on the day of the surgery and 21 days post-surgery to determine acute and final perfusion defect size. Imaging was performed on a preclinical SPECT/CT scanner (Mediso Nanoscan, Hungary). The rats were anesthetized with sevuflorane 4% for SPECT-scan to be obtained. On the day of the surgery, the rats were perioperatively injected with 99-technetium Sestamibi (median 106 mBq [99; 116]) as described above. On the 21-days follow-up the rats were anesthetized with sevoflurane 4%. In the rat's tail vein an 24G intravenous catheter was placed (Vasofix® Safety, Braun, Denmark). After the catheter was placed, the rats were injected with 99-tecnetium (median 122 [106; 129]).

CGRP receptor = molecular target: T1, CGRP receptor (Homo sapiens, UniProt O60894+Q16602); conditions: literature (Sheykhzade 2018; Nilsson 2016); cited from earlier work
T1 construct: host or cells: naturally occurring cells, recombinant CGRP receptor expressing cell lines, isolated artery segments (none specified)
T1 sequence (Q16602 23-461): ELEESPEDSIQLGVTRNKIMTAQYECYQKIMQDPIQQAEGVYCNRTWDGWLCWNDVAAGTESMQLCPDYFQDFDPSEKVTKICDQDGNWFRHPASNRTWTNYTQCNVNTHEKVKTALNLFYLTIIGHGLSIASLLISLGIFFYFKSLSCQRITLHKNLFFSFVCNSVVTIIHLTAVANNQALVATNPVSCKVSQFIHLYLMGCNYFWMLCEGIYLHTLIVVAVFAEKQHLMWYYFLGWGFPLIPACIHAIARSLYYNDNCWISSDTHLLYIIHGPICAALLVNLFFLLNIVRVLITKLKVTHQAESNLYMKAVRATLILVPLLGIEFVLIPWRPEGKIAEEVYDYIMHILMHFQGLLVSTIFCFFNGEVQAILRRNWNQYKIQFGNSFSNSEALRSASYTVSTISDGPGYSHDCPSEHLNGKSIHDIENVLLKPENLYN
T1 sequence (O60894 27-148): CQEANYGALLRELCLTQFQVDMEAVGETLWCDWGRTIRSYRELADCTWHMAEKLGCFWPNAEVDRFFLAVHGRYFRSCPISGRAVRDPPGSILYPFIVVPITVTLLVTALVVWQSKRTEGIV

[3] = system: coronary LAD artery segments; experiment: CGRP-agonist sensibilization: repeated dose-response and artery culture, coronary LAD; format: cell-based, rat
Excerpt: (§8) Artery segments were divided for comparison of the effect of Compound I and CGRP in fresh and cultured artery segments, respectively.

[4] = system: cerebral (basilar) artery segments; experiment: Vasodilation of isolated precontracted artery segments (wire myograph), basilar artery; format: cell-based, rat
Procedure: (§1) Basilar, mesenteric and coronary arteries were isolated immediately and ring artery segments were stored in ice cold PSS buffer before being mounted on 40 μm stainless steel wires in a Multi Wire Myograph System organ bath (model 610M, Danish Myo Technology A/S, Denmark). Each segment was immersed in 37° C. PSS solution, continuously aerated with 5% CO2/95% O2 to maintain pH 7.4. […] One wire was connected to a micrometer screw enabling adjustments of the distance between the wires. The other wire was connected to a force displacement transducer attached to an analogue-digital converter unit (ADInstruments, Chalgrove, UK).
(§2) Measurements of vascular tone were recorded using the data acquisition hardware Power Lab unit (ADInstruments). To ensure optimal conditions for maximal force development, each artery segment was carefully stretched to 90% of the internal circumference that the vessel would have under the passive transmural pressure of 100 mm Hg. Following an equilibration period of approximately 20 min, each segment was exposed twice to KPSS to confirm smooth muscle cell viability and the reproducibility of depolarization-induced contractions.
(§3) After 15 min equilibration, a stable precontraction tone (50-80% of the KPSS-induced steady state contraction) was induced in arterial segments by PGF2α (3-10 μM).
(§4) Concentration-dependent vasodilatory responses of artery segments were normalized as percentage of precontraction remaining.
(§5) Vasodilation is expressed as percentage of the remaining precontraction tone induced by PGF2α. Vessel wall tension=Force/(vessel wall length), where vessel wall length=2×segment length. Active tension was determined by subtracting the passive tension (resting tension in PSS) from the total tension (during KPSS or PGF2α challenge).
(§6) All pharmacological data were analysed using Prism 7.02 (GraphPad Software Inc., San Diego, CA) and given as mean±S.E.M. For all analyses, the data were unweighted and each y value (mean of replicates for each individual experiment) was considered an individual point.
(§7) Differences in pEC50 and Emax values were analysed with paired (animal) t-tests and considered significant as P<0.05.

[5] = system: coronary (left anterior descending artery, LAD) artery segments; experiment: Vasodilation of isolated precontracted artery segments (wire myograph), coronary artery; format: cell-based, rat
Procedure: as §1, §2
After 15 min equilibration, a stable precontraction tone (50-80% of the KPSS-induced steady state contraction) was induced in arterial segments by PGF2α (3-10 μM). […]
Vasodilation is expressed as percentage of the remaining precontraction tone induced by PGF2α. […] Active tension was determined by subtracting the passive tension (resting tension in PSS) from the total tension (during KPSS or PGF2α challenge).
as §6, §7

[6] = system: peripheral (mesenteric) artery segments; experiment: Vasodilation of isolated precontracted artery segments (wire myograph), mesenteric artery; format: cell-based, rat
Procedure: as §1, §2, §3, §4, §5, §6, §7

[7] = system: mesenteric artery segments; experiment: CGRP-agonist sensibilization: repeated dose-response and artery culture, mesenteric artery; format: cell-based, rat; conditions: isolated mesenteric artery
Excerpt: as §8

[8] = all completers, 21 days after infarct, mean ± SEM
[9] = subgroup with acute perfusion defect < 15%, 21 days, mean ± SEM

N-alpha-[2-(2-{2-[(S)-4-Carboxy-4-(17-carboxyheptadecanoylamino)-butyrylamino]-ethoxy}ethoxy)acetyl](Ser1]alpha-human CGRP peptide [Compound I]
Effect on hypertension (in words) [1]: reversing hypertension and complications of hypertension | Perfusion recovery, % [2, 8]: 55.1±6.6% and 55.1 ± 6.4% | Perfusion recovery, SRS [2, 8]: 6.5 ± 1 SRS | Animals surviving the surgery and the 3 weeks recovery period (survival rate) ([2]; rat, in vivo): 75% | Effect on survival rate (in words) ([2]; rat, in vivo): tendency (not statistically significant) towards an increased survival rate | Further rats that died during the 21-days follow-up period ([2]; rat, in vivo): 14% | Perfusion recovery in subgroup, % [2, 9]: 66.2 ± 9.0% | Perfusion recovery in subgroup, SRS [2, 9]: 3.8 ± 0.6 SRS | Effect on myocardial perfusion recovery (in words) ([2]; treatment for 3 successive days after experimental AMI, 3 weeks): large improvement of myocardial perfusion recovery; also recorded: significant improved recovery of perfusion defect | In vitro potency lower than that of CGRP (CGRP receptor): approximately 10 times | Effect of repeated cumulative stimulation on potency ratio Compound I/CGRP (in words) [3]: does not change the potency ratio | Effect of artery culture on CGRP-agonist-induced vasodilation (in words) ([3]; culture 24 h at 37° C. in absence and presence of 10 nM Compound I): induce sensibilization | Effect of repeated cumulative stimulation on potency (in words) ([3]; second dose-response curve 90-120 minutes after the first): shift in potency towards significant sensitization | Vasodilation efficacy compared with CGRP (in words) ([4]; basilar artery): comparable efficacy | Vasodilatory potency compared with CGRP (in words) ([4]; basilar artery): lower | Potency difference between CGRP and Compound I ([4]; cerebral artery): 5-10 fold | Potency ratio (EC50 CGRP: EC50 Compound 1) ([4]; cerebral artery): 0.1-0.2 | Vasodilation efficacy compared with CGRP (in words) ([5]; coronary artery): comparable efficacy; also recorded: not different | Potency ratio (EC50 CGRP: EC50 Compound 1) ([5]; coronary artery segments): ~1 | Vasodilatory potency compared with CGRP (in words) ([5]; coronary artery segments): equipotent; also recorded: similar; also recorded: not different | Potency difference between CGRP and Compound I ([6]; mesenteric artery): 5-10 fold | Potency ratio (EC50 CGRP: EC50 Compound 1) ([6]; mesenteric artery): 0.1-0.2 | Vasodilation efficacy compared with CGRP (in words) ([6]; mesenteric artery): comparable efficacy | Vasodilatory potency compared with CGRP (in words) ([6]; mesenteric artery): lower | Potency in peripheral compared with coronary artery (in words) ([6]; peripheral (mesenteric) versus coronary artery): not lower | Potency ratio between Compound I and CGRP after repeated dose-response (in words) [7]: maintained | CGRP-agonist-induced CGRP sensibilization (in words) ([7]; repeated dose-response and culture): no CGRP-agonist-induced CGRP sensibilization

N-alpha-[2-(2-{2-[(S)-4-Carboxy-4-(17-carboxyheptadecanoylamino)butyryl-amino]ethoxy}ethoxy)acetyl](Ser1]beta-human CGRP peptide [Compound II]
In vitro potency lower than that of CGRP (CGRP receptor): approximately 10 times
